One may read the melting point as the temperature, or range, at which the solid turns liquid.

`COc1ccc(CC(=O)NC(NC(=NC#N)Nc2cccnc2OC)C(C)(Cl)Cl)cc1OC` (centres unmarked) [Example 54, N-[2,2-dichloro-1-({(cyanoimino)[(2-methoxy-3-pyridinyl)amino]methyl}amino)propyl]-2-(3,4-dimethoxyphenyl)acetamide]: the melting point was 188 to 190 °C.
The same measure for `COc1ccc(CC(=O)NC(NC(=NC#N)Nc2cc(F)ccc2F)C(C)(C)C)cc1OC` (centres unmarked) [Example 19, N-[1-({(cyanoimino)[(2,5-difluorophenyl)amino]methyl}amino)-2,2-dimethylpropyl]-2-(3,4-dimethoxyphenyl)acetamide]: 190 to 191 °C.
The value for `COc1ccc(NC(=NC#N)NC(NC(=O)c2ccc(Cl)cc2)C(C)(Cl)Cl)c(OC)n1` (centres unmarked) [Example 51, 4-chloro-N-[2,2-dichloro-1-({(cyanoimino)[(2,6-dimethoxy-3-pyridinyl)amino]methyl}amino)propyl]benzamide] was 162 to 163 °C; that for `Cc1ncccc1NC(=NC#N)NC(NC(=O)Cc1ccc(F)c(F)c1)C(C)(C)C` (centres unmarked) [Example 1, N-[1-({(cyanoimino)[(2-methyl-3-pyridinyl)amino]methyl}amino)-2,2-dimethylpropyl]-2-(3,4-difluorophenyl)acetamide] was 58 to 60 °C.
`CC(C)(C)C(NC(=O)Cc1ccc2c(c1)OCCO2)NC(=NC#N)Nc1cccc2ncccc12` (centres unmarked) [Example 38, N-(1-{[(cyanoimino)(5-quinolinylamino)methyl]amino}-2,2-dimethylpropyl)-2-(2,3-dihydro-1,4-benzodioxin-6-yl)acetamide] registered a melting point of 191 to 192 °C.
The value for `Cc1ccccc1NC(=NC#N)NC(NC(=O)CCCc1ccccc1)C(C)(C)C` (centres unmarked) [Example 18, N-[1-({(cyanoimino)[(2-methylphenyl)amino]methyl}amino)-2,2-dimethylpropyl]-4-phenylbutanamide] was 153 to 154 °C.
The value for `CCc1ncccc1NC(=NC#N)NC(NC(=O)Cc1ccc(Cl)cc1)C(C)(C)C` (centres unmarked) [Example 9, 2-(4-chlorophenyl)-N-[1-({(cyanoimino)[(2-ethyl-3-pyridinyl)amino]methyl}amino)-2,2-dimethylpropyl]acetamide] was 112 to 114 °C.
The value for `CC(C)(C)C(NC(=O)Cc1ccc2cccnc2c1)NC(=NC#N)Nc1cccc2ncccc12` (centres unmarked) [Example 39, N-(1-{[(cyanoimino)(5-quinolinylamino)methyl]amino}-2,2-dimethylpropyl)-2-(7-quinolinyl)acetamide] was 147 to 148 °C.
For the molecule `CSc1ccc(CC(=O)NC(NC(=NC#N)Nc2cccnc2C)C(C)(C)C)cc1` (centres unmarked) [Example 8, N-[1-({(cyanoimino)[(2-methyl-3-pyridinyl)amino]methyl}amino)-2,2-dimethylpropyl]-2-[4-(methylthio)phenyl]acetamide], the melting point fell in the range of 172 to 173 °C.
The same measure for `Cc1ncccc1NC(=NC#N)NC(NC(=O)Cc1ccc(Cl)cc1)C(C)(C)C` (centres unmarked) [Example 2, 2-(4-chlorophenyl)-N-[1-({(cyanoimino)[(2-methyl-3-pyridinyl)amino]methyl}amino)-2,2-dimethylpropyl]acetamide]: 180 to 181 °C; for `COc1ccc(CC(=O)NC(NC(=NC#N)Nc2cc(C)ccc2C)C(C)(C)C)cc1OC` (centres unmarked) [Example 21, N-[1-({(cyanoimino)[(2,5-dimethylphenyl)amino]methyl}amino)-2,2-dimethylpropyl]-2-(3,4-dimethoxyphenyl)acetamide]: 93 to 94 °C.
In turn, `Cc1ncccc1NC(=NC#N)NC(NC(=O)Cc1ccc(F)cc1)C(C)(C)C` (centres unmarked) [Example 6, N-[1-({(cyanoimino)[(2-methyl-3-pyridinyl)amino]methyl}amino)-2,2-dimethylpropyl]-2-(4-fluorophenyl)acetamide] returned a melting point of 166 to 167 °C.
As for `COc1ccc(CC(=O)NC(NC(=NC#N)Nc2cc(Cl)ccc2F)C(C)(C)C)cc1OC` (centres unmarked) [Example 23, N-(1-{[[(5-chloro-2-fluorophenyl)amino](cyanoimino)methyl]amino}-2,2-dimethylpropyl)-2-(3,4-dimethoxyphenyl)acetamide], the melting point lay in the range of 187 to 188 °C.
The same measure for `Cc1ncccc1NC(=NC#N)NC(NC(=O)CCCCc1ccccc1)C(C)(C)C` (centres unmarked) [Example 5, N-[1-({(cyanoimino)[(2-methyl-3-pyridinyl)amino]methyl}amino)-2,2-dimethylpropyl]-5-phenylpentanamide]: 133 to 134 °C; for `CSc1ccc(CC(=O)NC(NC(=NC#N)Nc2cccc3ncccc23)C(C)(C)C)cc1` (centres unmarked) [Example 31, N-(1-{[(cyanoimino)(5-quinolinylamino)methyl]amino}-2,2-dimethylpropyl)-2-[4-(methylthio)phenyl]acetamide]: 188 to 189 °C.
The value for `CC(C)(C)C(NC(=O)Cc1ccc(C#N)cc1)NC(=NC#N)Nc1cccc2ncccc12` (centres unmarked) [Example 41, N-(1-{[(cyanoimino)(5-quinolinylamino)methyl]amino}-2,2-dimethylpropyl)-2-(4-cyanophenyl)acetamide] was 194.5 to 195.5 °C; that for `CCSc1ccc(CC(=O)NC(NC(=NC#N)Nc2cccc3ncccc23)C(C)(C)C)cc1` (centres unmarked) [Example 37, N-(1-{[(cyanoimino)(5-quinolinylamino)methyl]amino}-2,2-dimethylpropyl)-2-[4-(ethylthio)phenyl]acetamide] was 189 to 190 °C; that for `CC(C)(C)C(NC(=O)Cc1ccc(Cl)cc1)NC(=NC#N)Nc1cccc2cnsc12` (centres unmarked) [Example 45, N-(1-{[(1,2-benzisothiazol-7-ylamino)(cyanoimino)methyl]amino}-2,2-dimethylpropyl)-2-(4-chlorophenyl)acetamide] was 135 to 137 °C.
The same measure for `Cc1ccc(CC(=O)NC(NC(=NC#N)Nc2cccnc2C)C(C)(C)C)cc1F` (centres unmarked) [Example 4, N-[1-({(cyanoimino)[(2-methyl-3-pyridinyl)amino]methyl}amino)-2,2-dimethylpropyl]-2-(3-fluoro-4-methylphenyl)acetamide]: 75 to 77 °C.
Take `COc1ccc(CC(=O)NC(NC(=NC#N)Nc2cccnc2OC)C(C)(C)C)cc1OC` (centres unmarked) [Example 24, N-[1-({(cyanoimino)[(2-methoxy-3-pyridinyl)amino]methyl}amino)-2,2-dimethylpropyl]-2-(3,4-dimethoxyphenyl)acetamide]: the melting point lay in the range of 146 to 147 °C.
The value for `COc1ccc(CC(=O)NC(NC(=NC#N)Nc2c(F)cc(F)cc2F)C(C)(C)C)cc1OC` (centres unmarked) [Example 22, N-[1-({(cyanoimino)[(2,4,6-trifluorophenyl)amino]methyl}amino)-2,2-dimethylpropyl]-2-(3,4-dimethoxyphenyl)acetamide] was 170 to 171 °C; that for `COc1ccc(NC(=NC#N)NC(NC(=O)Cc2ccc(OC)c(OC)c2)C(C)(C)C)c(OC)n1` (centres unmarked) [Example 27, N-[1-({(cyanoimino)[(2,6-dimethoxy-3-pyridinyl)amino]methyl}amino)-2,2-dimethylpropyl]-2-(3,4-dimethoxyphenyl)acetamide] was 162 to 163 °C.
The same measure for `CC(C)(C)C(NC(=O)Cc1ccc(Cl)cc1)NC(=NC#N)Nc1cccc2ncccc12` (centres unmarked) [Example 32, 2-(4-chlorophenyl)-N-(1-{[(cyanoimino)(5-quinolinylamino)methyl]amino}-2,2-dimethylpropyl)acetamide]: 195 to 196 °C.
The same measure for `CN1CCCc2c(NC(=NC#N)NC(NC(=O)Cc3ccc(Cl)cc3)C(C)(C)C)cccc21` (centres unmarked) [Example 43, 2-(4-chlorophenyl)-N-[1-({(cyanoimino)[(1-methyl-1,2,3,4-tetrahydro-5-quinolinyl)amino]methyl}amino)-2,2-dimethylpropyl]acetamide]: 114 to 117 °C; for `COc1ccc(CCCC(=O)NC(NC(=NC#N)Nc2cccnc2C)C(C)(C)C)cc1` (centres unmarked) [Example 3, N-[1-({(cyanoimino)[(2-methyl-3-pyridinyl)amino]methyl}amino)-2,2-dimethylpropyl]-4-(4-methoxyphenyl)butanamide]: 65 to 68 °C.
Turning to `Cc1ncccc1NC(=NC#N)NC(NC(=O)CCCc1cccs1)C(C)(C)C` (centres unmarked) [Example 7, N-[1-({(cyanoimino)[(2-methyl-3-pyridinyl)amino]methyl}amino)-2,2-dimethylpropyl]-4-(2-thienyl)butanamide], the melting point is 66 to 68 °C.
The same measure for `COc1ccc(CC(=O)NC(NC(=NC#N)Nc2ccccc2Cl)C(C)(C)C)cc1OC` (centres unmarked) [Example 20, N-(1-{[[(2-chlorophenyl)amino](cyanoimino)methyl]amino}-2,2-dimethylpropyl)-2-(3,4-dimethoxyphenyl)acetamide]: 135 to 136 °C; for `Cc1ccccc1NC(=NC#N)NC(NC(=O)Cc1ccc(Cl)cc1)C(C)(C)C` (centres unmarked) [Example 17, 2-(4-chlorophenyl)-N-[1-({(cyanoimino)[(2-methylphenyl)amino]methyl}amino)-2,2-dimethylpropyl]acetamide]: 181 to 182 °C.
`CC(C)(C)C(NC(=O)Cc1ccc2ccccc2c1)NC(=NC#N)Nc1cccc2ncccc12` (centres unmarked) [Example 36, N-(1-{[(cyanoimino)(5-quinolinylamino)methyl]amino}-2,2-dimethylpropyl)-2-(2-naphthyl)acetamide]: the melting point is 200 to 201 °C.
The same measure for `Cc1ccc2c(NC(=NC#N)NC(NC(=O)Cc3ccc(Cl)cc3)C(C)(C)C)cccc2n1` (centres unmarked) [Example 44, 2-(4-chlorophenyl)-N-[1-({(cyanoimino)[(2-methyl-5-quinolinyl)amino]methyl}amino)-2,2-dimethylpropyl]acetamide]: 198 to 199 °C; for `CC(C)(C)C(NC(=O)Cc1ccc(Cl)cc1)NC(=NC#N)Nc1cccnc1Cl` (centres unmarked) [Example 26, 2-(4-chlorophenyl)-N-(1-{[[(2-chloro-3-pyridinyl)amino](cyanoimino)methyl]amino}-2,2-dimethylpropyl)acetamide]: 174 to 175 °C; for `COc1ccc(CC(=O)NC(NC(=NC#N)Nc2ccccc2C)C(C)(C)C)cc1` (centres unmarked) [Example 14, N-[1-({(cyanoimino)[(2-methylphenyl)amino]methyl}amino)-2,2-dimethylpropyl]-2-(4-methoxyphenyl)acetamide]: 174 °C.
